One series deals with Kv1.5 (Homo sapiens, UniProt P22460). In words: Off‐target panel: Kv1.5. The format is cell-based. To be noted: Blocker, read-out: Mean (PXC50). The method, then:
(§1) GSK716 selectivity and PK properties were profiled in order to investigate the suitability of GSK716 for progression into in vivo studies and the potential for taking it forward as a clinical candidate for testing in humans. Since GSK716 results in loss of inhibitory activity of α1‐antitrypsin, the effect of the compound was assessed on other closely related serpins. […] Furthermore, there were no off‐target effects in a panel of assays considered predictive of known safety liabilities that precluded further development of GSK716 (Table EV1).

The next series concerns the target NK1 (TACR1) (Homo sapiens, UniProt P25103). In words: Off‐target panel: NK1 (TACR1). The format is cell-based. Conditions: Antagonist, read-out: Mean (PXC50). The protocol:
as §1

For series [1], the target named is T1, plasma‐purified wild‐type M α1‐antitrypsin (Homo sapiens, UniProt P01009).
T1 construct: purified from the plasma of M (wild‐type) and Z α1‐antitrypsin homozygotes; from tissue; host or cells: human plasma of M (wild-type) homozygotes
As to the kind of experiment: Competition binding assay with Alexa488‐labelled analogue of GSK716, M α1‐antitrypsin. The source says:
(§2) The shape of the curves and native mass spectrometry (not shown) are consistent with a single high‐affinity compound binding site. No binding of the fluorescent derivative to polymers of Z α1‐antitrypsin was observed, indicating conformational selectivity for the monomeric protein (Fig 1D). The rate of interaction of the compound with the target was monitored through changes in intrinsic tryptophan fluorescence (Dafforn et al, 1999); this property was used to determine the second‐order association rate constants for GSK716 binding to Z (4.1 × 10^4 M^−1 s^−1) and M α1‐antitrypsin (2.1 × 10^2 M^−1 s^−1; Fig 1E and F). […] Therefore, the selectivity of the compound for Z over M α1‐antitrypsin is dominated by the difference in the rate of association rather than dissociation.
(§3) Kinetic parameters of GSK716 binding to M, Z, S (Glu264Val) and Baghdad (Ala336Pro) (Haq et al, 2016) α1‐antitrypsin were measured by detecting intrinsic tryptophan fluorescence of the protein (excitation at 280 nm and detection of emission at 320 nm) on a stopped flow apparatus (Applied Photophysics) (Kim & Yu, 1996; Dafforn et al, 1999). […]

In a further series the target is Vasopressin V1a (Homo sapiens, UniProt P37288). In words: Off‐target panel: Vasopressin V1a (DRX). The format is cell-based. To be noted: Antagonist, read-out: Mean (PXC50). The protocol: as §1
Series [2] addresses T2, Z α1‐antitrypsin (Homo sapiens, UniProt P01009, E366K). In words: Competition binding assay with Alexa488‐labelled analogue of GSK716, Z α1‐antitrypsin. Details: purified from the plasma of Z α1‐antitrypsin homozygotes; from tissue; host or cells: human plasma of Z α1-antitrypsin homozygotes. To be noted: n = 18, mean ± SD, read-out: mean pKD (converted).
Source text: as §2, §3

A further series is described as follows: Solubility in FaSSIF. The format is physicochemical. To be noted: amorphous, read-out: solubility of amorphous drug substance in FaSSIF.
In another series the target is Adrenergic β2 (Homo sapiens, UniProt P07550). In words: Off‐target panel: Adrenergic β2 (DRX). To be noted: read-out: Mean (PXC50). The series is classed as cell-based. The protocol:
as §1

In another series the target is Adrenergic α1B (Homo sapiens, UniProt P35368). In words: Off‐target panel: Adrenergic α1B (DRX). The series is classed as cell-based. The method, then:
as §1

The next series addresses Aurora B (STK12) (Homo sapiens, UniProt Q96GD4). In words: Off‐target panel: Aurora B (STK12). The series is classed as biochemical. Conditions: Inhibition, read-out: Mean (PXC50). The protocol: as §1
Another series has as its target T3, Muscarinic M1 (Homo sapiens, UniProt P11229).
T3 sequence (P11229 1-460): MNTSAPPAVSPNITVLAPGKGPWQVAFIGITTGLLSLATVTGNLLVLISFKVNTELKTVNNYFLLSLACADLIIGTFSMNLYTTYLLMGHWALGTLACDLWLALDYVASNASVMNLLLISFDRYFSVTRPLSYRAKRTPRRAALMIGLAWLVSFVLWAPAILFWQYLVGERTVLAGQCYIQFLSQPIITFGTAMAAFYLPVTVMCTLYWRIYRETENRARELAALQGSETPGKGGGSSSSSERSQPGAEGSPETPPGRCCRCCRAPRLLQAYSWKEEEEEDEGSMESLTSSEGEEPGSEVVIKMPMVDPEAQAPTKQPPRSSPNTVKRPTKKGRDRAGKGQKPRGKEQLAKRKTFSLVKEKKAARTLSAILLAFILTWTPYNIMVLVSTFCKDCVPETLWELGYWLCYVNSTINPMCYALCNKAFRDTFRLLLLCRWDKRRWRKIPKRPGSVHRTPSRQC
As to the kind of experiment: Off‐target panel: Muscarinic M1 (DRX). The format is cell-based. The protocol:
as §1

In another series the test system is mouse hepatocytes. In words: Hepatocyte clearance, mouse. The series is classed as in vitro ADME. The method, then:
Williams E media supplemented with 2 mM L‐glutamine and 25 mM HEPES and test compound (final compound concentration 0.5 µM; final DMSO concentration 0.25% v/v) were preincubated at 37°C prior to the addition of a suspension of cryopreserved pooled hepatocytes (final cell density 0.5 × 10^6 viable cells/ml) to initiate the reaction. The final incubation volume was 500 µl. The reactions were stopped by transferring 50 µl of incubate to 100 µl acetonitrile containing internal standard at the appropriate time points (0, 5, 10, 20, 40 and 60 min, 0, 10, 20, 40, 60 and 120 min or 0, 20, 40, 60, 120 and 240 min). The control (lysed cells or vehicle) was incubated for 60, 120 or 240 min only. The termination plates were centrifuged at 2,500 rpm at 4°C for 30 min to precipitate the protein. Following protein precipitation, the sample supernatants were analysed by LC‐MS/MS. From a plot of loge peak area ratio (compound peak area/internal standard peak area) against time, the gradient of the line was determined and half‐life (t½) and intrinsic clearance (CLint) were calculated.

For series [3], the target named is T2, Z α1‐antitrypsin. In words: Rapid refolding by snap dilution, non‐denaturing PAGE. The series is classed as biochemical. Details: purified from the plasma of Z α1‐antitrypsin homozygotes; from tissue; host or cells: human plasma of Z α1-antitrypsin homozygotes. To be noted: snap dilution from denaturant.
For the next series, the target named is OPRM1 (Homo sapiens, UniProt P35372). In words: Off‐target panel: OPRM1 (DRX). The format is cell-based. The method, then:
as §1

The next series concerns the target α1 nicotinic AChR (Homo sapiens, UniProt P02708). In words: Off‐target panel: α1 nicotinic AChR. The series is classed as cell-based. The method, then:
as §1

In brackets after ≈: the same amount, converted by molar mass.

Chain of α1 nicotinic AChR (P02708 21-457): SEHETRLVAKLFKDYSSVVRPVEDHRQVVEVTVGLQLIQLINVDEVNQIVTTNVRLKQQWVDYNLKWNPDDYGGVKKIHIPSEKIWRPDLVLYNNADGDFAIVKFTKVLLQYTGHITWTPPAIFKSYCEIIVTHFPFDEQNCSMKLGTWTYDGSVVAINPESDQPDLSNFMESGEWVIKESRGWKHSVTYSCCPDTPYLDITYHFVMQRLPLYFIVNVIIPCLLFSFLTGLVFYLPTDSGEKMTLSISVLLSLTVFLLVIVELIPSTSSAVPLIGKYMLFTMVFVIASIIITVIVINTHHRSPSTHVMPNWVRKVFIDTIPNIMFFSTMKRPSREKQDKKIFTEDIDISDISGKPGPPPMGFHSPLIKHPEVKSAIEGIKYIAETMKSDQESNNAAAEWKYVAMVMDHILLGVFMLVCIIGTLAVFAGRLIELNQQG
Chain of α1 nicotinic AChR (P11230 24-501 partner): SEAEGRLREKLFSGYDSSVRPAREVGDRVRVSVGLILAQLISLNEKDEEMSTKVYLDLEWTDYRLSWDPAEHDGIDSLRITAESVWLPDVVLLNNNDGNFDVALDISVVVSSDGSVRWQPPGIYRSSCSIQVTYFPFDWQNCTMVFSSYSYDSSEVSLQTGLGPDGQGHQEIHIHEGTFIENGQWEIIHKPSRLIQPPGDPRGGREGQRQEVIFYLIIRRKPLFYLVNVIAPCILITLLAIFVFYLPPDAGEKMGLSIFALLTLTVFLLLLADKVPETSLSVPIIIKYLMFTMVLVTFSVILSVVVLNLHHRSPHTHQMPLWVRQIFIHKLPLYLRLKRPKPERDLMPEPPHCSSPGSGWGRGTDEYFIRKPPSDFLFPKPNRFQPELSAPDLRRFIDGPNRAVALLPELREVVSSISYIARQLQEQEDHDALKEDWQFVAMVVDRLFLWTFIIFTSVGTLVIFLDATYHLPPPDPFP
Chain of α1 nicotinic AChR (Q07001 22-517 partner): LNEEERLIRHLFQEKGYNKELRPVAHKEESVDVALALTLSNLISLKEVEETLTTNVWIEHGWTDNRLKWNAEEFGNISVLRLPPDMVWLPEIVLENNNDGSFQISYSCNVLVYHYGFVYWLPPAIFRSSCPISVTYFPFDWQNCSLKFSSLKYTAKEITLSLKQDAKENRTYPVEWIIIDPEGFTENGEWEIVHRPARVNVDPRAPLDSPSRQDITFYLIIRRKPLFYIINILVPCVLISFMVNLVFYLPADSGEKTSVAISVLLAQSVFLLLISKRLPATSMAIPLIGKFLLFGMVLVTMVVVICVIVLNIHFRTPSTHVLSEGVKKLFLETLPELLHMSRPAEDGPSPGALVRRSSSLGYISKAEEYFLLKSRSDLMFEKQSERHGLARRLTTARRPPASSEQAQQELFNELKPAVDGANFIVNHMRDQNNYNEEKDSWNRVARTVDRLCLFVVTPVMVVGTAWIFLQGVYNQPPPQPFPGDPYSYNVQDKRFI
Chain of Adrenergic β2 (P07550 whole entry): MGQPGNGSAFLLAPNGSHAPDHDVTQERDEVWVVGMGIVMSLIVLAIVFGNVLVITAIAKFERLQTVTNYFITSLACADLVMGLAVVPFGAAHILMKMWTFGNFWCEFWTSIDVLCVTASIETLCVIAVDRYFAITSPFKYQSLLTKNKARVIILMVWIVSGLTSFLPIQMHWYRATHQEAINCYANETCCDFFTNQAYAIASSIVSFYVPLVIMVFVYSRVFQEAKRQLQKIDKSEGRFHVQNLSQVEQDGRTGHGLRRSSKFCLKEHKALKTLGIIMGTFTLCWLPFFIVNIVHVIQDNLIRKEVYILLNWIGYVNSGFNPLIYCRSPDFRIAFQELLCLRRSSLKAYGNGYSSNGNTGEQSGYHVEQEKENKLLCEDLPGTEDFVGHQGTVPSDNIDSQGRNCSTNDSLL
T2 sequence (P01009 25-418 E366K): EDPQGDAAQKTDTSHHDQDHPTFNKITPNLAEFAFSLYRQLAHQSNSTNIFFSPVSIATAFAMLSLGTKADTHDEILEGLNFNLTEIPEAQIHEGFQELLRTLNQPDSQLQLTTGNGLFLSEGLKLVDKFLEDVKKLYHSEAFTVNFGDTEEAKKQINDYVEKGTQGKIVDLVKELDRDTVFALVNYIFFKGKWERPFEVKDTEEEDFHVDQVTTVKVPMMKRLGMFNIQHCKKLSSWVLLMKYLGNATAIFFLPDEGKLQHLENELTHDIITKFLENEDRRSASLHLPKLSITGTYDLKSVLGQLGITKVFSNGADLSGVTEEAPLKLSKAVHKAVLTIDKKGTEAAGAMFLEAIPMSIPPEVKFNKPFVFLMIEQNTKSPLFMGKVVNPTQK
T1 sequence (P01009 25-418): as the sequence (P01009 25-418 E366K) above, with K342E counted along it
Chain of OPRM1 (P35372 whole entry, species assumed): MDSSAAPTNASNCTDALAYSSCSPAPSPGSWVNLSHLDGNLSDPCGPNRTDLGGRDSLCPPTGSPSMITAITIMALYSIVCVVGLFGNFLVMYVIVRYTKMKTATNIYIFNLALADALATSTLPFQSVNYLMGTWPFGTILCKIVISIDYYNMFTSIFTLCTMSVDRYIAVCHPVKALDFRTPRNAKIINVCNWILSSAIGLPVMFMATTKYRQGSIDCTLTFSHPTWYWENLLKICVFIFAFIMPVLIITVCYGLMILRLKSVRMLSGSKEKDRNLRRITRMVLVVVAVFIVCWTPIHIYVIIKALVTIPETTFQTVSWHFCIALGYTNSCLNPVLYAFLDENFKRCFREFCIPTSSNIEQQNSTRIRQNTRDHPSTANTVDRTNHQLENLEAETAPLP
Chain of Adrenergic α1B (P35368 whole entry): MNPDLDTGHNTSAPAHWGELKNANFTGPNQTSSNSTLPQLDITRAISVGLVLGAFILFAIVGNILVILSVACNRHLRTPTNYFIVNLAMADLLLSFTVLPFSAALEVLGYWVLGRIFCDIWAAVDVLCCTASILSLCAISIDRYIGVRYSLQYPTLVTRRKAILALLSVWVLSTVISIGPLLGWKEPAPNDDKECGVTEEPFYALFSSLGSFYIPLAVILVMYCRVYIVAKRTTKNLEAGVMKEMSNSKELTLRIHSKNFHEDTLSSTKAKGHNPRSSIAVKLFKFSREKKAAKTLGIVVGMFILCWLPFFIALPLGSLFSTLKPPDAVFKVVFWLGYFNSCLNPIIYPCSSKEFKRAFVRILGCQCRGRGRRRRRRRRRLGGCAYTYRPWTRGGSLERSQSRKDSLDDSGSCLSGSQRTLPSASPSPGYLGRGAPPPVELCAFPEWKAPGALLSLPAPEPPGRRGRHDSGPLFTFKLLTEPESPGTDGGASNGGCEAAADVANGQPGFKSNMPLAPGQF
Chain of Vasopressin V1a (P37288 whole entry): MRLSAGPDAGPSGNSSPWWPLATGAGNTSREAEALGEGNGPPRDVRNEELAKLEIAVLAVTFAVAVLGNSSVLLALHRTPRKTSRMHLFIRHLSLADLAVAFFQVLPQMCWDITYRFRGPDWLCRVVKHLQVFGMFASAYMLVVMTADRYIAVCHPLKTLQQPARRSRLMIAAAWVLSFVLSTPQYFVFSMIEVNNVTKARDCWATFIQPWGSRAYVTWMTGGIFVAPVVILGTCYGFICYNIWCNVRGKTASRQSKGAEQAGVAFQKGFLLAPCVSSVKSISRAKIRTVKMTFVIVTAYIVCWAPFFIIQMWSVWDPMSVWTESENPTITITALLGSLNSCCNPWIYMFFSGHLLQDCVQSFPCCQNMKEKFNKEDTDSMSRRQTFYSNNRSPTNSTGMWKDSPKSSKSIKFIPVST
Chain of NK1 (TACR1) (P25103 whole entry, species assumed): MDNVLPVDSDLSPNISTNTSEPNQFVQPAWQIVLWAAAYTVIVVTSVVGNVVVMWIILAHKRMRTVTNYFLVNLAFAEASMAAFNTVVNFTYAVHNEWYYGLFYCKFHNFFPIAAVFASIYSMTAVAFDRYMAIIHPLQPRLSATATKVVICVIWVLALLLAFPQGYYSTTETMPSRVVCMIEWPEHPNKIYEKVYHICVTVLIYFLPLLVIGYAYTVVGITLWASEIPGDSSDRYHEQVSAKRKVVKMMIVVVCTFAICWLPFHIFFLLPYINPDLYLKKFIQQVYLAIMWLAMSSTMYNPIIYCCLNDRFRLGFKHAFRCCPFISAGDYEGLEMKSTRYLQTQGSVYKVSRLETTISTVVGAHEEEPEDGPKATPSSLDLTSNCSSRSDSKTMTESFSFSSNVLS
Chain of Aurora B (STK12) (Q96GD4 whole entry, species assumed): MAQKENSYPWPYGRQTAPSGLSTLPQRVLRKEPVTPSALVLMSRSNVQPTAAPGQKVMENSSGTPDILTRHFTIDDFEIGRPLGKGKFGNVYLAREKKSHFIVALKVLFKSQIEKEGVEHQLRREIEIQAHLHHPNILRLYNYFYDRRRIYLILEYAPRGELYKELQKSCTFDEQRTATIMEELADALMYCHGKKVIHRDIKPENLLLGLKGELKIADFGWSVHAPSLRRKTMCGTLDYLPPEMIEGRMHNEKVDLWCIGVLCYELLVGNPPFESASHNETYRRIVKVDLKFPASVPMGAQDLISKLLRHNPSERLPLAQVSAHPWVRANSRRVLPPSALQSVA
Chain of Kv1.5 (P22460 whole entry): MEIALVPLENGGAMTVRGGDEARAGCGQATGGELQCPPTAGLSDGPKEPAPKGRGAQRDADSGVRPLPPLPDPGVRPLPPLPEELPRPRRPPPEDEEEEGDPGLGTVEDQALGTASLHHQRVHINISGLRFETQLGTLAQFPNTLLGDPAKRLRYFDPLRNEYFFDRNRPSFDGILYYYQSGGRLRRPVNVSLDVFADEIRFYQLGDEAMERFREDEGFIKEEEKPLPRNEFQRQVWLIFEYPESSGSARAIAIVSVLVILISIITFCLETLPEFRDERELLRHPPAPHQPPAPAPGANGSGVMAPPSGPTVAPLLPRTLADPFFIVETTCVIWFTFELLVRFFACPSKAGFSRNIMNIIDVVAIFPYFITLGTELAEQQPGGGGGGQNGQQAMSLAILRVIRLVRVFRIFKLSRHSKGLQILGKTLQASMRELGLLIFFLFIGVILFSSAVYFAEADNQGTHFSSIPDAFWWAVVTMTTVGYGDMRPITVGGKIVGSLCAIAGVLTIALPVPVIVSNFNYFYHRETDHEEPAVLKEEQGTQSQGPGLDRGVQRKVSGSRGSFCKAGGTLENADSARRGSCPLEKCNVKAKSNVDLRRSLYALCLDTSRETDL

As a reminder, the solubility is how much of the substance goes into solution per volume. In the case of `CCC[C@@H](NC(=O)c1cccc2c1CC(=O)N2)[C@@H](O)c1cccc(F)c1C` [GSK716], the IC50 on Kv1.5 is above 50.1 µM; at NK1 (TACR1), above 25.1 µM; on Vasopressin V1a it was above 50.1 µM; on Adrenergic β2 (Antagonist), above 100 µM; at Adrenergic α1B it was above 25.1 µM; on Aurora B (STK12), above 31.6 µM. Further, the IC50 is above 50.1 µM against Muscarinic M1 and 31.6 µM on α1 nicotinic AChR. The “selectivity: affinity for Z over M α1‐antitrypsin” value in series [1] came out at 50 fold. For the same compound, the Kd is 158 nM in [1] (plasma‐purified wild‐type M α1‐antitrypsin, n = 10, mean ± SD, read-out: mean pKD (converted)) and 3.16 nM at Z α1‐antitrypsin [2]. Further, the solubility in “Solubility in FaSSIF” was 969 µg/mL (≈ 2620 µM). In addition, the EC50 on Adrenergic β2 (Agonist) was above 100 µM; at Muscarinic M1, above 50.1 µM; at OPRM1 it was 10 µM; at α1 nicotinic AChR it was above 50.1 µM. Besides, the “metabolic clearance in mouse hepatocytes” value in the series with mouse hepatocytes is recorded as 4.56 ml/min/g tissue. The “misfolded by‐product of M* on refolding of the Z variant” value at Z α1‐antitrypsin [3] is “corrected at stoichiometric concentrations and above”.

(Values after PMC7933930, “Development of a small molecule that corrects misfolding and increases secretion of Z α1‐antitrypsin” (EMBO Molecular Medicine, 2021).)
